This note sets out measurements from patent publication US10081628B2, “Apoptosis-inducing agents for the treatment of cancer and immune and autoimmune diseases” (AbbVie Inc., priority 2013, dated 2018).

Each structure is given as a SMILES string. Bounds are passed on as bounds.

Experiment [1] concerns the target GST-Bcl-2 (Homo sapiens, UniProt P10415). The experiment can be described thus: TR-FRET Bcl-2 binding assay (F-Bak peptide probe). To be noted: GST-Bcl-2 1 nM, F-Bak peptide probe 100 nM, Tb-anti-GST 1 nM; Wang's equation; '<' = below limit of detection. The protocol:
Determination of the utility of compounds of this invention as binders to and inhibitors of anti-apoptotic Bcl-2 proteins was performed using the Time Resolved-Fluorescence Resonance Energy Transfer (TR-FRET) Assay. Tb-anti-GST antibody was purchased from Invitrogen (Catalog No. PV4216).
Representative compounds were serially diluted in dimethyl sulfoxide (DMSO) starting at 50 μM (2× starting concentration; 10% DMSO) and 10 μL were transferred into a 384-well plate. The samples are then mixed on a shaker for 1 minute and incubated for an additional 3 hours at room temperature. For each assay, the probe/antibody and protein/probe/antibody were included on each assay plate as negative and positive controls, respectively. Fluorescence was measured on the Envision (Perkin Elmer) using a 340/35 nm excitation filter and 520/525 (F-Bak peptide) and 495/510 nm (Tb-labeled […] antibody) emission filters. Dissociation constants (Ki) are shown in TABLE 2 below and were determined using Wang's equation (Wang Z.-X., An Exact Mathematical Expression For Describing Competitive Binding Of Two Different Ligands To A Protein Molecule. FEBS Lett. 1995, 360:111-4).
The samples were then mixed on a shaker for 1 minute and incubated for an additional 3 hours at room temperature. For each assay, the probe/antibody and protein/probe/antibody were included on each assay plate as negative and positive controls, respectively. Fluorescence was measured on the Envision (Perkin Elmer) using a 340/35 nm excitation filter and 520/525 (F-Bak peptide) and 495/510 nm (Tb-labeled anti-Histidine antibody) emission filters.
Inhibition constants (Ki) for compounds were determined using Wang's equation (Wang Zx. An Exact Mathematical Expression For Describing Competitive Binding Of Two Different Ligands To A Protein Molecule. FEBS Lett. 1995, 360:111-4).
The inhibition constant (Ki) is the dissociation constant of an enzyme-inhibitor complex or a protein/small molecule complex, wherein the small molecule is inhibiting binding of one protein to another protein or peptide. So a large Ki value indicates a low binding affinity and a small Ki value indicates a high binding affinity. […] The compounds are therefore expected to have utility in treatment of diseases during which anti-apoptotic Bcl-2 protein is expressed. Biological Data

The test system of experiment [2] is RS4;11 cells. The experiment in a line: RS4;11 cell viability assay (CellTiter Glo). The following applies: 10% human serum, 48 hours. The format is cell-based. An excerpt:
The acute lymphoblastic leukemia (ALL) cell line RS4;11 was used as the primary human cell line to assess the cellular activity of Bcl-2 selective agents in vitro and their efficacy in vivo. Previous studies have shown by BH3 profiling, a mitochondrial assay that classifies blocks in the intrinsic apoptotic pathway, that RS4;11 cells were highly dependant on BCL-2 for survival and sensitive to the Bcl-2 family member inhibitor ABT-737 (Blood, 2008, Vol. 111, 2300-2309).
RS4;11 cells were cultured in RPMI-1640 supplemented with 2 mM L-glutamine, 10% FBS, 1 mM sodium pyruvate, 2 mM HEPES, 1% penicillin/streptomycin (Invitrogen), 4.5 g/L glucose and maintained at 37 C containing 5% CO2. To test for the cellular activity of compounds in vitro, cells were treated at 50,000 cells per well in 96-well microtiter plates in the presence of 10% human serum for 48 hours in a humidified chamber with 5% CO2. Cell cytotoxicity EC50 values were assessed using CellTiter Glo (Promega) according to the manufacturer's recommendations. The EC50 values were determined as a percentage of viable cells following treatment compared to the untreated control cells.

Chain of GST-Bcl-2 (P10415 whole entry): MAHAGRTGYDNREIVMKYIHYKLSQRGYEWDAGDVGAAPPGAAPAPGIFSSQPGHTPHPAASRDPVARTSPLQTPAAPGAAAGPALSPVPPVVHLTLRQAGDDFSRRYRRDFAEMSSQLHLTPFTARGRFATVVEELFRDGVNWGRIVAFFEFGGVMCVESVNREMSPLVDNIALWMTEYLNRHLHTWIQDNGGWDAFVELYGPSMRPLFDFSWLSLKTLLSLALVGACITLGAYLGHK

In turn, `CC1(C)CCC(CN2CCN(c3ccc(C(=O)NS(=O)(=O)c4ccc(NC[C@H]5CCOC(C)(C)C5)c([N+](=O)[O-])c4)c(Oc4cnc5[nH]ccc5c4)c3)CC2)=C(c2ccc(Cl)cc2)C1` [Example 33, 4-(4-{[2-(4-chlorophenyl)-4,4-dimethylcyclohex-1-en-1-yl]methyl}piperazin-1-yl)-N-{[4-({[(4S)-2,2-dimethyltetrahydro-2H-pyran-4-yl]methyl}amino)-3-nitrophenyl]sulfonyl}-2-(1H-pyrrolo[2,3-b]pyridin-5-yloxy)benzamide] gave a Ki in experiment [1] below 0.1 nM. This molecule gave an EC50 in experiment [2] of 44 nM.
In experiment [1], `CC1(C)CCC(CN2CCN(c3ccc(C(=O)NS(=O)(=O)c4ccc(NCC5(CO)COC5)c([N+](=O)[O-])c4)c(Oc4cnc5[nH]ccc5c4)c3)CC2)=C(c2ccc(Cl)cc2)C1` [Example 11, 4-(4-{[2-(4-chlorophenyl)-4,4-dimethylcyclohex-1-en-1-yl]methyl}piperazin-1-yl)-N-{[4-({[3-(hydroxymethyl)oxetan-3-yl]methyl}amino)-3-nitrophenyl]sulfonyl}-2-(1H-pyrrolo[2,3-b]pyridin-5-yloxy)benzamide] registered an inhibition constant Ki below 0.1 nM. Also, in experiment [2], a half-maximal response (EC50) required 15 nM.
For `CC1(C)CCC(CN2CCN(c3ccc(C(=O)NS(=O)(=O)c4ccc(NCC5COCCOC5)c([N+](=O)[O-])c4)c(Oc4cnc5[nH]ccc5c4)c3)CC2)=C(c2ccc(Cl)cc2)C1` [Example 51, 4-(4-{[2-(4-chlorophenyl)-4,4-dimethylcyclohex-1-en-1-yl]methyl}piperazin-1-yl)-N-({4-[(1,4-dioxepan-6-ylmethyl)amino]-3-nitrophenyl}sulfonyl)-2-(1H-pyrrolo[2,3-b]pyridin-5-yloxy)benzamide], in that order: below 0.1 nM and 39 nM.
For `C[C@H]1CO[C@@H](CNc2ccc(S(=O)(=O)NC(=O)c3ccc(N4CCN(CC5=C(c6ccc(Cl)cc6)CC(C)(C)CC5)CC4)cc3Oc3cnc4[nH]ccc4c3)cc2[N+](=O)[O-])CO1` [Example 45, 4-(4-{[2-(4-chlorophenyl)-4,4-dimethylcyclohex-1-en-1-yl]methyl}piperazin-1-yl)-N-{[4-({[(2S,5S)-5-methyl-1,4-dioxan-2-yl]methyl}amino)-3-nitrophenyl]sulfonyl}-2-(1H-pyrrolo[2,3-b]pyridin-5-yloxy)benzamide], in that order: below 0.1 nM and 19 nM.
Taken in the same sequence, the figures for `CC1(C)CCC(CN2CCN(c3ccc(C(=O)NS(=O)(=O)c4ccc(NCC5CC(F)(F)C5)c([N+](=O)[O-])c4)c(Oc4cnc5[nH]ccc5c4)c3)CC2)=C(c2ccc(Cl)cc2)C1` [Example 28, 4-(4-{[2-(4-chlorophenyl)-4,4-dimethylcyclohex-1-en-1-yl]methyl}piperazin-1-yl)-N-[(4-{[(3,3-difluorocyclobutyl)methyl]amino}-3-nitrophenyl)sulfonyl]-2-(1H-pyrrolo[2,3-b]pyridin-5-yloxy)benzamide] were below 0.1 nM and 120 nM.
Molecule `CC1(C)CCC(CN2CCN(c3ccc(C(=O)NS(=O)(=O)c4ccc(NC[C@H]5C[C@H](C#N)C5)c([N+](=O)[O-])c4)c(Oc4cnc5[nH]ccc5c4)c3)CC2)=C(c2ccc(Cl)cc2)C1` [Example 41, 4-(4-{[2-(4-chlorophenyl)-4,4-dimethylcyclohex-1-en-1-yl]methyl}piperazin-1-yl)-N-[(4-{[(trans-3-cyanocyclobutyl)methyl]amino}-3-nitrophenyl)sulfonyl]-2-(1H-pyrrolo[2,3-b]pyridin-5-yloxy)benzamide] returned a Ki in experiment [1] below 0.1 nM. For the same molecule, the EC50 in experiment [2] came to 47 nM.
Taken in the same sequence, the figures for `CC1(C)CCC(CN2CCN(c3ccc(C(=O)NS(=O)(=O)c4ccc(N5CCOCC5)c([N+](=O)[O-])c4)c(Oc4cnc5[nH]ccc5c4)c3)CC2)=C(c2ccc(Cl)cc2)C1` [Example 8, 4-(4-{[2-(4-chlorophenyl)-4,4-dimethylcyclohex-1-en-1-yl]methyl}piperazin-1-yl)-N-{[4-(morpholin-4-yl)-3-nitrophenyl]sulfonyl}-2-(1H-pyrrolo[2,3-b]pyridin-5-yloxy)benzamide] were 0.7 nM and above 1000 nM.
